Laboratory results: patent publication US20140045908A1, “HSP90 INHIBITORY COMPOUNDS IN TREATING JAK/STAT SIGNALING-MEDIATED CANCERS” (SYNTA PHARMACEUTICALS CORP., priority 2011, published 2014)

Key:
SET-2 cells = experiment: Cell viability assay (AlamarBlue, 72 h); type: cell-based, human
Protocol: (§1) All cell lines were obtained from the ATCC (Rockville, Md., USA), with the exception of SET-2 cells which were purchased from the German Collection of Microorganisms and Cell Cultures (DSMZ, Germany). Cells were maintained and cultured according to standard techniques at 37° C. in 5% (v/v) CO2 using culture medium recommended by the supplier.
(§2) Cells were grown in 96-well plates based on optimal growth rates determined empirically for each line. Twenty-four hours after plating, cells were dosed with the indicated compound or DMSO (0.3%) for 72 h. AlamarBlue (Invitrogen, Carlsbad, Calif., USA) was added (10% v/v) to the cells, and the plates were incubated for 3 h and subjected to fluorescence detection (Ex=545 nm, Em=600 nm) in a SpectraMax Plus 384 microplate reader (Molecular Devices, Sunnyvale, Calif., USA). Data are normalized to percent of control, with IC50 values based on a four-parameter logistic dose response curve (model 205) using XLfit version 5.1 from IDBS (Guildford, U.K.).

MV4-11 cells = experiment: Cell viability assay (AlamarBlue, 72 h); type: cell-based, human
Protocol: as §1, §2

DU145 cells = experiment: Cell viability assay (AlamarBlue, 72 h); type: cell-based, human
Protocol: as §1, §2

HEL92.1.7 cells = experiment: Cell viability assay (AlamarBlue, 72 h); type: cell-based, human
Protocol: as §1, §2

[1] = tested on: JAK/STAT target and cell cycle gene expression in HEL92.1.7 cells; experiment: RNA expression profiling (RT-PCR, Affymetrix) in HEL92.1.7 cells; type: cell-based, human
Protocol: HEL92.1.7 cells were treated with DMSO, P6 (100 or 1000 nM) or ganetespib (25 or 250 nM) for 4 h or 24 h, and total RNA extracted using Trizol (Invitrogen). RNA was purified with the RNeasy kit (Qiagen, Hilden, Germany) and converted to cDNA via an iScript kit (BioRad, Hercules, Calif., USA). Oligonucleotide primers were purchased from SABiosciences (Frederick, Md., USA). PCR was done with iQ SYBR Green Supermix (Bio-Rad), and levels of the tested genes were normalized to HPRT expression using the comparative Ct method.
Biotinylated aRNA was generated by in vitro transcription using Affymetrix GeneChip Expression IVT labeling kit (Affymetrix, Santa Clara, Calif., USA). Fifteen micrograms of labeled aRNA was fragmented and hybridized to Affymetrix GeneChip Human Genome U133 Plus 2 arrays and scanned using a GeneChip Scanner (Affymetrix). Array data were analyzed with the Affymetrix Expression Console Software utilizing the MASS algorithm. In order to generate a threshold for identifying probe sets that have large differences between 1000 nM P6 (4 h) and 250 nM ganetespib (24 h) arrays and their controls in the absence of treatment replicates, data from four control arrays (DMSO only; two at 4 h, and two at 24 h) were used to create an expression level dependent fold-difference envelope that reflects the increasing measurement variability as expression level decreases. This envelope, used in lieu of a fixed fold-difference criteria, was formed by identifying the xth percentile expression-level difference (where x was large, typically 99.9%) at each mean expression level bin. To achieve this, data were used from the six possible comparisons from the four DMSO-only arrays. The resulting, smoothed threshold fold-difference envelope was then applied to the two compound-treated/control array pairs to identify those probe-sets that have large expression level differences between treatment and control. For hierarchical analysis, genes with greater than two fold changes in expression with 250 nM ganetespib were clustered using established algorithms in Cluster (49) and a subset visualized by TreeView.

[2] = tested on: JAK2 signaling in DU145 cells; experiment: Western blot of JAK/STAT proteins in DU145 cells; type: cell-based, human
Protocol: DU145 cells were dosed with graded concentrations of ganetespib for 24 h and cell lysates subject to western blot to determine JAK/STAT and target protein levels using the antibodies indicated.
DU145 cells were treated with DMSO (control, C), 15 nM, 60 nM or 240 nM ganetespib for either 24 or 48 h and lysates probed by western blot with the indicated antibodies.
Cells were disrupted in lysis buffer (CST) and solubilized in 2% SDS. Xenograft tumors (average volume of 100-200 mm3) were excised, cut in half, and flash frozen in liquid nitrogen. Each tumor fragment was lysed in 0.5 mL of lysis buffer using a FastPrep-24 homogenizer and Lysing Matrix A (MP Biomedicals, Solon, Ohio, USA) and lysates clarified by centrifugation. Equal amounts of proteins were resolved by SDS-PAGE and immunoblotted with indicated antibodies. The antigen-antibody complex was visualized and quantitated using an Odyssey system (LI-COR, Lincoln, Nebr., USA).

[3] = tested on: HEL92.1.7 cells (JAK2V617F); experiment: HEL92.1.7 disseminated (orthotopic) leukemia survival model; type: in vivo
Protocol: Beginning 1 day after tumor cell implantation, ganetespib was i.v. dosed at its HNSTD (25 mg/kg) on a five-times per week schedule for 3 weeks through day 19 ([…]). *P<0.0001; 2-sided log-rank test.
Eight-week-old female immunodeficient CB-17/Icr-Prkdcscid/Crl (SCID) mice (Charles River Laboratories, Wilmington, Mass.) were maintained in a pathogen-free environment, and all in vivo procedures were approved by the Synta Pharmaceuticals Corp. Institutional Animal Care and Use Committee. For the MV4-11 model, tumor cells were subcutaneously implanted in SCID mice as previously described (34). Tumor volumes (V) were calculated by caliper measurements of the width (W), length (L), and thickness (T) of each tumor using the formula: V=0.5236 (LWT).
For the HEL92.1.7 model, SCID mice were i.v. injected via the tail vein with 5×10^6 cells in phosphate-buffered saline (PBS) on day 0. Implanted animals were then randomized into groups of 10 and i.v. dosed via the tail vein at 10 mL/kg body weight with either vehicle or ganetespib formulated in 10/18 DRD. Animals were weighed daily and removed from the study at the first sign of hind limb paralysis, which occurred in 100% of vehicle-treated animals. Median overall survival was estimated using the Kaplan-Meier method and the log-rank test (2-sided) for statistical significance. Tumor cells were identified as either CD44- or CD54-positive cells within the CD45-negative population. Spinal column tumor burden was determined by quantitative image analysis with ImageJ software (Wayne Rasband, National Institute of Mental Health) of hematoxylin and eosin stained tissue sections.
For both models, studies were conducted at the highest non-severely toxic doses (NHSTDs) of 150 mg/kg ganetespib one-time per week or 25 mg/kg ganetespib 5×/week for 3 weeks based on prior tolerability studies conducted in non-tumor bearing mice.

SMILES: CC(C)c1cc(-c2nnc(O)n2-c2ccc3c(ccn3C)c2)c(O)cc1O [ganetespib, 3-(2,4-dihydroxy-5-isopropyl-phenyl)-4-(1-methyl-indol-5-yl)-5-hydroxy-[1,2,4] triazole]
- fold more potent than 17-AAG, cell viability (SET-2 cells): greater than 100 fold
- sensitivity of cells in vitro (MV4-11 cells): highly sensitive
- induction of cell death (DU145 cells): potent inducer of cell death
- fold more potent than 17-AAG, cell viability (HEL92.1.7 cells; 72 h): greater than 100 fold
- IC50 (HEL92.1.7 cells; Homo sapiens, HEL 92.1.7, 72 h, Alamar blue, read-out: IC50, loss of cellular viability): 20 nM
- expression of cell cycle-related genes ([1]; 250 nM, 24 h): selectively altered the expression of a large set of genes involved in cell cycle-related activities
- expression of heat shock protein genes ([1]; 250 nM, 24 h): up-regulation of numerous heat shock protein genes
- expression of JAK/STAT target genes (SOCS and PIM family members) ([1]; 4 hour P6 (1000 nM), 24 hour ganetespib (250 nM)): downregulated
- JAK1 kinase level ([2]; 15-240 nM, 24 or 48 h): not targeted for degradation
- JAK2, phospho-STAT3 and phospho-SHP2 levels ([2]; 24 h): Loss of JAK2, phospho-STAT3 and phospho-SHP2
- tumor cell burden in bone marrow and spinal cord (histological analysis) ([3]; 25 mg/kg i.v. 5×/week): dramatically decreased tumor cell burden
- median overall survival ([3]; 25 mg/kg i.v. 5×/week through day 19, SCID mice): 76.5 days
- body weight (tolerability) ([3]; 25 mg/kg i.v. 5×/week, after 3 weeks of dosing): no significant loss of body weight
